In experiment [1] the test system is (A-T)20. The experiment is described as follows: Fluorescence quantum yield in presence of DNA. It counts as binding. The note with it: in presence of (A-T)20. The procedure: Cresyl violet perchlorate in ethanol (ϕ=0.54) is used as the standard for the fluorescence quantum yield calculation using the absorption of the test sample. The emission spectral area is obtained in the 550-800 nm regions. Dilute solutions (10^−6 M) are used to minimize reabsorption effects of the dyes. Quantum yields are determined using the following equation, ϕs=ϕr(Fs/Fr)×(Ar/As)×(ns^2/nr^2)
Where, ϕr and ϕs are the quantum yield of reference and sample respectively, Fr and Fs are the integrated intensities (areas) of standard and sample spectra, nr and ns are the refractive indices of the reference and sample solution, Ar and As are the absorbance intensities of reference and sample respectively.

The next experiment deals with P. falciparum. The experiment is described as follows: IC50 determination in malaria parasites. The experiment is classed as cell-based, Plasmodium falciparum. The note with it: for IC50: Plasmodium falciparum. On the procedure: P. falciparum strain 3D7 is cultured. Briefly, malaria parasites are cultured in human erythrocytes in T75 flasks with RPMI 1640 (Gibco) supplemented with 10 μg/mL gentamicin (Sigma), 50 μg/mL ampicillin, 0.2% NaHCO3 (Sigma), 0.5% albumax (Invitrogen) and Hypoxanthine (27 mg/L). The culture is maintained under standard conditions (37° C. in 90% nitrogen, 5% CO2, and 5% O2). For synchronization of the parasites, ring-staged parasites are treated with 5% sorbitol at 37° C. for about 5-10 min, followed by washing with pre-warmed incomplete medium twice, and placed back in complete medium. QCy-DT probe (resuspended in Mili-Q water) is added to parasites (25±2 hpi) at a final concentration of 0.5 μM and the parasites are incubated for 30 min at 37° C. Following treatment fluorescence imaging of the parasites is performed using Carl Zeiss AXIO Imager Z1 and the software used for image capturing was AxioVision Rel. 4.8. To determine the IC50 value of QCy-DT against P. falciparum, parasites are synchronized in ring stage (˜12±2 h) and parasitemia is maintained at ˜1%, followed by treatment with 0, 0.5, 1, 2 and 4 μM of QCy-DT at early trophozoite stage (˜20±2 h). After about 40 hours of the QCy-DT treatment, Geimsa stained slides are prepared, and parasitemia is counted. At least six homogenous microscopic fields are counted for each treatment, and each experiment is done in triplicates. The graphs are plotted for the percentage of parasitemia (at 0 time point and at 40 hours after incubation with QCy-DT) against QCy-DT concentration, with mean and standard error.

Another experiment relates to (D1)mix. In words: Switch-on NIR-fluorescence enhancement with DNA. The experiment is classed as binding. The procedure: (§1) All the chemicals, reagents, single-stranded oligos (dA20, dT20, dG20, dC20), self-complementary oligos {d(ATAT)5, (D1)mix, Drew-AT, Calf-Thymus DNA (CT-DNA), (DM1, DM2, DM3, DM4, DM5, DM6 and DM7)}, RNA, were purchased from Sigma-Aldrich. ^1H and ^13C NMR spectra were recorded on a Bruker AV-400 MHz spectrometer with chemical shifts reported as parts per million (ppm) (in DMSO-d6, tetramethylsilane as an internal standard) at 20° C. UV-vis absorption and emission spectra were measured in quartz cuvettes of 1 cm path length. High resolution mass spectra (HRMS) were obtained on Agilent Technologies 6538 UHD Accurate-Mass Q-TOF LC/MS spectrometer. All biophysical studies (UV-vis, fluorescence and Cirular dichroism) are carried out at the concentration 0-5 μM of probe, volume=500 μL, temperature=25° C. and time of incubation=2 minutes. HeLa cells and MCF7 cells used in the biological studies are obtained from “Molecular reproduction, development and genetics lab, Indian institute of science, Bangalore, India”
(§2) Stock solutions of QCy-DT are prepared in double-distilled (dd) water in the order of 10^−3 M and stored at about −10° C. DNA stock solutions are prepared by dissolving oligo samples in double-distilled (dd) water in the order of 10^−4 M. Solutions of DNA duplexes are prepared in Tris-HCl (100 mM, pH=7.4) buffer solution by mixing complementary DNA strands in equimolar concentration. This solution is then subjected to annealing by heating up to about 85° C. for about 15 minutes, subsequently cooled to room temperature for about 7 hours and stored in the refrigerator (about 4° C.) for about 4 hours.
(§3) The UV-vis absorption and emission spectra are recorded on Agilent Technologies Cary series UV-vis-NIR absorbance and Cary eclipse fluorescence spectrophotometers, respectively. Thermal denaturation (UV-melting) studies are carried out on Cary 5000 UV-vis-NIR spectrophotometer equipped with Cary temperature controller in the range of 10° C. to 90° C. with a ramp rate of 1° C./min. The variable temperature/wavelength mode is used. Absorption is monitored at 260 nm with regular 5° C. intervals. Melting temperatures (Tm) of DNA samples are calculated from the first derivatives of the absorption vs. temperature curves (thermal denaturation or melting curves) obtained by monitoring at 260 nm.
(§4) For this, poly AT-duplexes such as (A-T)20, self-complementary d(ATAT)5, Drew-AT (14 base pair self-complementary sequence with 6AT-base pairs in central core), poly GC-duplex (G-C)20, (D1)mix, which is a 16 base pair long self-complementary duplex and CT-DNA as mixed AT/GC duplexes is chosen (Table 2). […] QCy-DT experience hydrophobic environment upon binding to minor groove of AT-rich duplex DNA which prevents aromatic π-stacking interactions with base pairs and other molecules of the probe that led to the hyperchromicity in the absorbance maximum of QCy-DT. […] Further, the absorption and emission properties of QCy-DT in the presence of poly AT- and GC-duplexes are studied. […] Further, we also studied the emission behavior of QCy-DT in presence of CT-DNA, (D1)mix, single-stranded (ss) DNAs and RNA. […] To ascertain the switch-on behavior of QCy-DT in the presence of AT-rich DNA duplex, viscosity measurements are performed by increasing the glycerol content in buffer solution. […] Consequently, the observed strong fluorescence enhancement in the presence of AT-rich DNA duplexes is the result of restriction of intramolecular rotation of probe QCy-DT in the constrained environments of DNA, which also facilitates the desolvation (water molecules) around QCy-DT in the hydrophobic environment of DNA duplex (FIG. 1c).

In experiment [2] the test system is (A-T)20. In words: Switch-on NIR-fluorescence enhancement with DNA. The experiment is classed as binding. The procedure: as §1, §2, §3, §4
For another experiment, the system named is Drew-AT. The experiment is described as follows: Switch-on NIR-fluorescence enhancement with DNA. It counts as binding. On the procedure: as §1, §2, §3, §4
Experiment [3] concerns single-stranded (ss) DNAs. In words: Switch-on NIR-fluorescence enhancement with DNA. It counts as binding. The note with it: ssDNAs. The procedure: as §1, §2, §3, §4
In the next experiment the test system is (G-C)20. The experiment is described as follows: Switch-on NIR-fluorescence enhancement with DNA. The note with it: QCy-DT 2 μM, (G-C)20 4 μM, Tris-HCl. It counts as binding. On the procedure:
as §1, §2, §3, §4

Where two headings read alike, the source gives them in different places.

For the compound `C[n+]1c(/C=C/c2ccc(O)c(/C=C/c3sc4ccccc4[n+]3C)c2)sc2ccccc21` [QCy-DT, quinone cyanine-dithiazole], in the experiment on (A-T)20 [1], the “Quantum Yield (ΦF)” value is recorded as ~0.32. In the experiment on P. falciparum (8 μM), the parasite stage progression result is “arrested in the trophozoite stage”. The IC50 was < 4 µM with P. falciparum (against malarial parasites, as printed in the description, read-out: inhibitory concentration (IC50)) and < 4 µM in the experiment on P. falciparum (early trophozoite stage, 40 h treatment, parasitemia count, read-out: IC50). The fluorescence enhancement was ~55 fold in the experiment on (D1)mix; ~250 fold with (A-T)20 [2] (QCy-DT 2 μM, (A-T)20 4 μM, Tris-HCl); ~200 fold with Drew-AT (QCy-DT 2 μM, Drew-AT 4 μM, λem=650 nm, vs probe alone); ~2 fold in experiment [3]; 8 fold in the experiment on (G-C)20. The “difference in fluorescence enhancement, (A-T)20 compared to d(ATAT)5” value in the experiment on (A-T)20 [2] (ratio (A-T)20 / d(ATAT)5) is given as ~4 fold. Moreover, in the experiment with Drew-AT (ratio 5′-AAATTT-3′ / 5′-AATT-3′), the “fluorescence enhancement with 5′-AAATTT-3′ core, higher than 5′-AATT-3′ core” value is given as ~4 fold.

Source of the values: patent publication US10683273B2, “Compounds as DNA probes, methods and applications thereof” (JAWAHARLAL NEHRU CENTRE FOR ADVANCED SCIENTIFIC RESEARCH, priority 2015, dated 2020).
